From a melting point compilation (Tetko et al.; mined from patent text by program, amines drawn as free bases though some values may be those of a salt)

SMILES	melting point [°C]
CN(N=Cc1ccccc1C(=O)O)c1nc2ccccc2o1	253 to 255
CC(C)N1CC2(COc3ccc(N(C)C)cc3OC2)OC1=O (stereo unspecified)	135 to 138
COC(=O)Cc1ccc(S(C)(=O)=O)c(Cl)c1	54 to 57
O=C(O)c1cc(=O)n(Cc2ccc(S(=O)(=O)O)cc2S(=O)(=O)O)[nH]1	> 300
O=c1nc(-c2cccc(CC(O)=S)n2)sc2ccccc12	258 to 260
O=C(O)/C=C/n1cnc2ccccc2c1=O	250 to 254
O=C(O)c1cc(-c2ccc3c(c2)CCO3)nn(CCCc2ccc(Cl)cc2)c1=O	157 to 160
CC1C(CCc2ccccc2)SC2=CC=NC3=CC=CC(c4ccccc4)C321 (stereo unspecified)	210
O=C(O)COc1ccc2c(-c3ccccn3)noc2c1Cl	255 to 256
N#Cc1ccc(C(=O)c2ccc(O)c(F)c2)cc1	168 to 170
CC(=O)N[C@H]1CC[C@H](CCN2CCN(c3ncc(C)c4occc34)CC2)CC1	208
CC[C@@H](c1ccccc1)N(Cc1ccc(C(=O)OC)c(F)c1)S(=O)(=O)c1ccc(Cl)cc1	96 to 98
COC(=O)c1cc(Cl)cnc1NCc1ccccc1	77 to 79
O=[N+]([O-])c1cccc(COc2cccc3cccnc23)c1	98 to 99
CC(=O)c1ccc(C2=C(c3ccc(S(C)(=O)=O)cc3)OC(C)(C)C2=O)cc1	164 to 167
CCN1C(=O)C(Cl)(Cl)c2cc3sccc3cc21	143 to 144
O=P(O)(O)C(c1ccc2cc(O)ccc2c1)P(O)(O)=S (stereo unspecified)	210 to 211

SMILES	melting point [°C]
CN(C#N)C(=O)CCCCCCCCC(=O)N(C)C#N	83.4 to 84
CC1(C(=O)c2c[nH]c3ncc(-c4cccs4)nc23)CCCCC1	224 to 225
CC(C)Cc1ccc(C(Nc2cccc(C(=O)n3cc(CCCC(=O)O)c4ccccc43)c2)c2ccc(CC(C)C)cc2)cc1	74.8
Cc1cccc(-c2nc(C)cc(NC3CCCCC3)n2)n1	59.6 to 65
CON=Cc1nc(C)n2c1CN=C(c1ccccc1)c1cc(Cl)ccc1-2	193 to 195
CCCc1cc(Cl)c2oc(Cc3ccc(O)cc3)c(C)c2c1O	142 to 143
CNC1=C([N+](=O)[O-])C(=O)NC1=Cc1ccccc1	238
O=C(Nc1cccnn1)N1CCN(c2cc(-c3ccc(F)cc3)ncn2)CC1	254 to 255
COc1ccc2oc3ccc(C=O)cc3c(=O)c2c1	167 to 169
Nc1ccc(CNC(=O)C2Cc3ccccc3N2S(=O)(=O)c2ccc(-c3cccc(C(F)(F)F)c3)cc2)cc1 (stereo unspecified)	84
CCOc1nc(NC)nc(NC(=O)NS(=O)(=O)c2cccc3c2nnn3C)n1	203 to 209
NC(=O)C1(Nc2ccccc2)CCN([C@H]2CCc3ccccc32)CC1	194 to 195
CC(NC(=O)C1=C(C(=O)Nc2cc(OC3CCCCC3)c(Cl)cc2F)CCCC1)c1ccccc1 (stereo unspecified)	156 to 159
N#CC(Cl)=C(Cl)SC(Cl)=C(Cl)C#N	87
CCOc1ccncc1NS(=O)(=O)c1nc2cc(C)nc(OC)n2n1	184 to 186
Cc1ncc2c(c1C(=O)O)COc1ccccc1C2=O	216 to 218
Cc1cc(C2=NOC(c3cc(Cl)cc(Cl)c3)(C(F)(F)F)C2)ccc1C(=O)Nc1ncc(Br)cn1 (stereo unspecified)	178 to 181

Now from value to compound:

melting point [°C]	SMILES
251 to 253	Cc1cc2c(cc1C)C(O)(c1ccccc1Cl)C(=O)N2 (stereo unspecified)
235 to 237	CCOC(=O)C(=O)Nc1ccc2c(c1)CC(=O)N2
277 to 279	CC(O)(C(O)C(O)=Cc1ccccc1)C(O)(Br)C(O)C(O)=Cc1ccccc1 (stereo unspecified)
92 to 93	CCN(CC)C(=O)CCc1ccc(O)c(N)c1
231 to 233	CN(c1cccc2cc(C3=NCC(CC(=O)O)S3)[nH]c12)S(=O)(=O)c1ccccn1 (stereo unspecified)
127	CC(C)(C)OC(=O)NCC(CNC(=O)OC(C)(C)C)OS(C)(=O)=O
62 to 63	C=CCN(C#N)c1c(Cl)ccc2nsnc12
94 to 95	COc1ccc(CCNC(=S)c2ccccc2C)cc1OC
297 to 299	CC1=C(C#N)S(=O)(=O)c2cc(Cl)ccc2N1
109 to 111	C=Cc1cn(-c2c(Cl)cc(C(F)(F)F)cc2Cl)nn1
104	C=C(C)C(=O)NCC(=O)O
160 to 161	COc1cc(C(=O)N2CCN(C(=O)OC(C)(C)C)C(C=O)C2)cc(OC)c1OC (stereo unspecified)
83.4	CCOC(=O)C(C)(C)Sc1ccc2c(-c3ccccc3F)noc2c1Cl
219 to 221	CN1C(=O)C2(COc3cc4c(cc32)OCCO4)c2c(Oc3ccccn3)cccc21 (stereo unspecified)
200 to 203	CCCCc1nn(-c2cc(NC(=O)CC)ccc2Cl)c(=O)n1Cc1ccc(-c2ccccc2S(=O)(=O)NC(=O)c2c(F)cccc2Cl)cc1F
86.5 to 87	COC(=O)Nc1cc(C(C)(C)C)no1
133 to 134	CC(=O)c1cc(-c2c(C)c(NC(=O)CC(C)(C)C)c(C)c3c2OCC3c2ccc(C(C)C)cc2)cs1 (stereo unspecified)
72 to 74	CCc1c(Br)c(C#N)nn1C
181 to 182	CCOCc1nc2c(N)nc3ccc(OCc4ccccc4)cc3c2n1CC(C)(C)O

melting point [°C]	SMILES
59.9 to 60.8	CCCCCCCCCCC1(CCCCCCCCCC)c2cc(-c3cccs3)ccc2-c2ccc(-c3cccs3)cc21
110 to 111	Cc1nnc(-c2ccc3occ(-c4cccc(OC(F)(F)F)c4)c3c2)o1
117 to 119	O=C(O)c1ccc(S(=O)(=O)Oc2ccc(-c3ccc(-c4c(Cc5ccccc5)sc5ccccc45)cc3)cc2Br)cc1O
232 to 234	NC1([C@@H]2CCN(c3nc4c(cc3F)c(=O)c(C(=O)O)cn4[C@@H]3C[C@@H]3F)C2)CC1
165 to 167	COc1ccc(NS(=O)(=O)c2ccc(NC3=C(Cl)C(=O)c4ccccc4C3=O)cc2OC)cc1
71	S=C(NCc1ccccc1)C1(c2ccccn2)CCCS1 (stereo unspecified)
188 to 190	CC(=Cc1ccc2cc[nH]c2c1)C(=O)O
71 to 73	C(#Cc1ccccn1)CCn1nnc(-c2ccccc2)n1
128 to 131	CSc1cc(C)nc(SC)c1NC(=O)CCCCCCCSc1nc2c(C)c(Cl)cc(C(C)C)c2o1
215 to 216	CC1(C)Oc2cc3nonc3cc2[C@@H](NC(=O)Nc2ccccc2)[C@@H]1O (relative stereo)
67 to 69	CN(C)CCCOc1ccccc1C=C1CCc2ccccc2C1=O
230	CCn1nc(C(C)(C)C)c2c1C(=S)NCC(c1ccccc1)=N2
220	COc1cc(-c2oc3ccc(CC(=O)NC(CC(C)C)C(N)=O)cc3c2SC)ccc1O (stereo unspecified)
140 to 141	COc1cc(C)nc(C(=O)O)n1
185 to 193	CCOC(=O)c1[nH]c2ccc(C(O)(C(F)(F)F)C(F)(F)F)cc2c1-c1ccccc1
96 to 98	COC(=O)c1cccc(OCc2c(Cl)cccc2Cl)c1
209	Cc1oncc1-c1cncc(OC2SCC(O)C(O)C2O)c1 (stereo unspecified)
212 to 216	Nc1ncnc2c1ncn2Cc1oc2ccccc2c(=O)c1-c1ccc(F)cc1
